# Molecular target: Factor D (Homo sapiens (Human), UniProt P00746)
# Experiment: Factor D esterolytic assay (Z-Lys-SBzl substrate, DTNB, 405 nm)
# Assay type: biochemical
# Conditions: Z-Lys-SBzl 1.29 mM, pH 7.5, 10% DMSO, tested a minimum of three times, read-out: Measured Ki (IC50) Value for Compounds: IC50
# Protocol: The IC50 value of a compound (i.e., the concentration of the compound that inhibits 50% of the enzymatic activity) was calculated according to the procedure reported in U.S. Pat. No. 6,653,340 B1, e.g., column 74 (incorporated by reference).
# Specifically, the compounds were dissolved in a stock solution of DMSO at 10.0 or 100 mM. A portion of this stock solution was added to assay buffer in a final volume of 50 μL. Controls included buffer alone and enzyme solutions to which DMSO was added. Substrate was added to the reaction wells immediately or after incubation at room temperature. The reaction rates were measured spectrophotometrically by the generation of product at 405 nm for 600 sec. Background absorbance at 690 nm was measured and subtracted from the absorbance at 405 nm for each well.
# The reaction rate for enzyme alone was compared to the rate of enzyme in the presence of inhibitor and the percent inhibition was calculated as shown below: Percent Inhibition=[Rate without inhibitor−Rate with inhibitor)/(Rate without inhibitor)]×100 Factor D Esterolytic Assay:
# An established esterolytic assay for the measurement of Factor D activity and inhibition of Factor D activity was used (Kam, C. M.; McRae, B. J.; Harper, J. W.; Niemann, M. A.; Volanakis, J. E.; Powers, J. C. Human complement proteins D, C2, and B Active site mapping with peptide thioester substrates. J Biol. Chem. 1987, 262, 3444-3451). For this assay Z-Lys-SBzl, 1.29 mM (Kim, S.; Narayana, S. V. L; Volanakis, J. E. Mutational analysis of the substrate binding site of human complement Factor D. Biochemistry. 1994, 33, 14393-14399.) was used as the substrate for Factor D ([…]). Hydrolysis of this compound by Factor D liberated a free sulfhydryl group which is then reacted with 5,5′-dithiobis(2nitrobenzoic acid) producing an intense yellow color (Habeeb, A. F. S. A. Reaction of protein sulfhydryl groups with Ellman's Reagent. Methods in Enzymol. 1976, 25, 457-464). The assays were performed in 96 well microtiter plates and rates of hydrolysis were monitored at 405 nm on a Biotek Synergy H1 plate reader. Hydrolysis rates were reported as change in mOD/min. The assay was conducted in 100 mM HEPES, 500 mM NaCl, pH 7.5 containing 10% DMSO in a final volume of 50 μL per well.
# An IC50, a compound concentration which inhibits 50% of the enzymatic activity, was calculated. Compounds in the examples were tested a minimum of three times.
# Factor D, sequence (P00746 26-253): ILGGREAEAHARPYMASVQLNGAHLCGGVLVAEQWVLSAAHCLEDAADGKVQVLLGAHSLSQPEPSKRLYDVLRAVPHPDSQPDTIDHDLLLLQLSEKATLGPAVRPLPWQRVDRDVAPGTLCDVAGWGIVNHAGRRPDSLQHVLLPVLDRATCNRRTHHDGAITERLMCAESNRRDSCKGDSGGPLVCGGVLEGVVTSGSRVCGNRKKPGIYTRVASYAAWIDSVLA
row,SMILES,IC50 [nM]
1,"NCc1cccc(-c2nc(C(=O)Nc3ccccc3CC(=O)O)nc3c2COC3)c1 [Compound 48h, 2-(2-(4-(3-(aminomethyl)phenyl)-5,7-dihydrofuro[3,4-d]pyrimidine-2-carboxamido)phenyl)acetic acid]",1000 to 10000
2,"N#Cc1ccc(CC(=O)O)c(OCc2cc(-c3ccnc(CN)c3F)c3occc3c2)c1 [Compound 435b, 2-(2-((7-(2-(aminomethyl)-3-fluoropyridin-4-yl)benzofuran-5-yl)methoxy)-4-cyanophenyl)acetic acid]",< 1000
3,"NCc1cccc(-c2cc(COc3ccccc3CC(=O)O)cc3cc(CN4CCOCC4)oc23)c1 [Compound 139c, 2-(2-((7-(3-(aminomethyl)phenyl)-2-(morpholinomethyl)benzofuran-5-yl)methoxy)phenyl)acetic acid]",< 1000
4,"N[C@H](CO)c1cccc(-c2cc(COc3ccccc3CC(=O)O)cc3ccoc23)c1 [Compound 59d, (S)-2-(2-((7-(3-(1-amino-2-hydroxyethyl)phenyl)benzofuran-5-yl)methoxy)phenyl)acetic acid]",< 1000
5,"Cc1ccc(CC(=O)O)c(OCc2cc(-c3ccnc(CN)c3)c3occc3c2F)c1 [Compound 346c, 2-(2-((7-(2-(aminomethyl)pyridin-4-yl)-4-fluorobenzofuran-5-yl)methoxy)-4-methylphenyl)acetic acid]",< 1000
6,"NCc1cccc(-c2cc(COc3cccnc3CC(=O)O)cc3ccoc23)c1 [Compound 230e, 2-(3-((7-(3-(aminomethyl)phenyl)benzofuran-5-yl)methoxy)pyridin-2-yl)acetic acid]",1000 to 10000
7,"NCc1cccc(-c2cc(COc3cc(-c4ccoc4)ccc3CC(=O)O)cc3ccoc23)c1 [Compound 313c, 2-(2-((7-(3-(aminomethyl)phenyl)benzofuran-5-yl)methoxy)-4-(furan-3-yl)phenyl)acetic acid]",< 1000
8,"COCc1cc2cc(COc3ccc(F)cc3CC(=O)O)cc(-c3cccc(CN)c3F)c2o1 [Compound 463b, 2-(2-((7-(3-(aminomethyl)-2-fluorophenyl)-2-(methoxymethyl)benzofuran-5-yl)methoxy)-5-fluorophenyl)acetic acid]",< 1000
9,"Cc1ccc(OCc2cc(-c3cccc(CN)c3)c3occc3c2)c(CC(=O)O)c1 [Compound 162e, 2-(2-((7-(3-(aminomethyl)phenyl)benzofuran-5-yl)methoxy)-5-methylphenyl)acetic acid]",< 1000
10,"NCc1cccc(-c2cc(COc3ccccc3CC(=O)O)cc3c2cnn3CC2CC2)c1F [Compound 127b, 2-(2-((4-(3-(aminomethyl)-2-fluorophenyl)-1-(cyclopropylmethyl)-1H-indazol-6-yl)methoxy)phenyl)acetic acid]",< 1000
11,"NCc1cccc(-c2cc(COc3ccccc3CC(=O)O)cc3[nH]c(C(F)(F)F)cc23)c1 [Compound 332e, 2-(2-((4-(3-(aminomethyl)phenyl)-2-(trifluoromethyl)-1H-indol-6-yl)methoxy)phenyl)acetic acid]",< 1000
12,"Cc1nc2cc(C(=O)Nc3ccccc3CC(=O)O)cc(-c3cccc(CN)c3)c2n1C [Compound 30d, 2-(2-(7-(3-(aminomethyl)phenyl)-1,2-dimethyl-1H-benzo[d]imidazole-5-carboxamido)phenyl)acetic acid]",> 10000
13,"N#Cc1ccc(CC(=O)O)c(OCc2cc(-c3cccc(CN)c3F)c3occc3c2)c1 [Compound 414b, 2-(2-((7-(3-(aminomethyl)-2-fluorophenyl)benzofuran-5-yl)methoxy)-4-cyanophenyl)acetic acid]",< 1000
14,"NCc1cccc(-c2nc(C(=O)Nc3ccsc3CC(=O)O)c3cccn3n2)c1F [Compound 144d, 2-(3-(2-(3-(aminomethyl)-2-fluorophenyl)pyrrolo[2,1-f][1,2,4]triazine-4-carboxamido)thiophen-2-yl)acetic acid]",< 1000
15,"NCc1cccc(-c2cc(COc3cc(-c4ccco4)ccc3CC(=O)O)cc3ccoc23)c1 [Compound 318c, 2-(2-((7-(3-(aminomethyl)phenyl)benzofuran-5-yl)methoxy)-4-(furan-2-yl)phenyl)acetic acid]",< 1000
16,"NCc1nccc(-c2cc(COc3cc(F)ccc3CC(=O)O)cc3ccoc23)c1F [Compound 364d, 2-(2-((7-(2-(aminomethyl)-3-fluoropyridin-4-yl)benzofuran-5-yl)methoxy)-4-fluorophenyl)acetic acid]",< 1000
17,"NCc1cccc(-c2cc(COc3ccccc3CC(=O)O)cc3nncn23)c1 [Compound 159f, 2-(2-((5-(3-(aminomethyl)phenyl)-[1,2,4]triazolo[4,3-a]pyridin-7-yl)methoxy)phenyl)acetic acid]",1000 to 10000
18,"CCc1ccc(CC(=O)O)c(OCc2cc(-c3cccc(CN)c3)c3oc(F)cc3c2)c1 [Compound 469g, 2-(2-((7-(3-(aminomethyl)phenyl)-2-fluorobenzofuran-5-yl)methoxy)-4-ethylphenyl)acetic acid]",< 1000
19,"NCc1cccc(-c2cc(N(Cc3ccccc3CC(=O)O)C(=O)OCc3ccccc3)cc3ccoc23)c1 [Compound 404c, 2-(2-(((7-(3-(aminomethyl)phenyl)benzofuran-5-yl)((benzyloxy)carbonyl)amino)methyl)phenyl)acetic acid]",< 1000
20,"NCc1cccc(-c2cc(COc3ncccc3CC(=O)O)cc3ccoc23)c1 [Compound 231c, 2-(2-((7-(3-(aminomethyl)phenyl)benzofuran-5-yl)methoxy)pyridin-3-yl)acetic acid]",< 1000
21,"NCc1cccc(-c2cc(COc3ccccc3CC(=O)O)cc3cc(C(O)C4CC4)oc23)c1 (stereo not drawn) [Compound 105c, 2-(2-((7-(3-(aminomethyl)phenyl)-2-(cyclopropyl(hydroxy)methyl)benzofuran-5-yl)methoxy)phenyl)acetic acid]",< 1000
22,"NCc1cccc(-c2cc(COc3ccc(C(N)=O)cc3CC(=O)O)cc3ccoc23)c1 [Compound 244c, 2-(2-((7-(3-(aminomethyl)phenyl)benzofuran-5-yl)methoxy)-5-carbamoylphenyl)acetic acid]",1000 to 10000
23,"NCc1cc(-c2cc(COc3cc(F)ccc3CC(=O)O)c(F)c3ccoc23)ccn1 [Compound 503c, 2-(2-((7-(2-(aminomethyl)pyridin-4-yl)-4-fluorobenzofuran-5-yl)methoxy)-4-fluorophenyl)acetic acid]",< 1000
24,"Cn1ncc2c(-c3cccc(CN)c3)cc(COc3ccccc3CC(=O)O)cc21 [Compound 131b, 2-(2-((4-(3-(aminomethyl)phenyl)-1-methyl-1H-indazol-6-yl)methoxy)phenyl)acetic acid]",< 1000
25,"COc1c(C(=O)Nc2ccccc2CC(=O)O)cc(-c2ccnc(CN)c2)c2occc12 [Compound 251c, 2-(2-(7-(2-(aminomethyl)pyridin-4-yl)-4-methoxybenzofuran-5-carboxamido)phenyl)acetic acid]",1000 to 10000
26,"CC(C)n1ccc2c(-c3ccnc(CN)c3)cc(COc3ccc(F)cc3CC(=O)O)cc21 [Compound 497d, 2-(2-((4-(2-(aminomethyl)pyridin-4-yl)-1-isopropyl-1H-indol-6-yl)methoxy)-5-fluorophenyl)acetic acid]",< 1000
27,"NCc1cccc(-c2cc(NC(=O)c3ccccc3N)cc3ccoc23)c1 [Compound 216d, 2-amino-N-(7-(3-(aminomethyl)phenyl)benzofuran-5-yl)benzamide]",> 10000

# — patent US11370774B2, “Substituted benzofuran, benzopyrrole, benzothiophene, and structurally related complement inhibitors” (BioCryst Pharmaceuticals, Inc., priority 2018, dated 2022)
